Measurements: patent publication US10359436B2, “Nuclear stress response in motor neuron disease and other neurological diseases” (DIGNITY HEALTH, priority 2013, dated 2019)

System: HEK293 cells
Assay: Quantitative immunocolocalization of RBM45 with the nuclear stress body marker HSF1 in stressed HEK293 cells
Format: cell-based
Conditions: mitoxantrone treatment as cellular stress, quantitative immunocolocalization analysis
Method: An imaging-based approach combining immunofluorescence microscopy (IF), digital deconvolution (DD), and automated image analysis (IA) is used to examine RBM45 redistribution and colocalization with markers of subnuclear structures in response to heat shock and mitoxantrone (topoisomerase II inhibitor, genotoxic stress).
For immunocytochemistry experiments, HEK293 cells were grown and stained with antibodies, as above. Corresponding images were subjected to digital deconvolution, counting as above, and quantitative immunocolocalization with markers of subnuclear structures.
Digital deconvolution is a mathematical post-processing method that removes out of focus light from wide field fluorescent microscopic images, based on the mathematical modeling of the behavior of light in a given imaging system, called the point spread function (PSF). The effect of deconvolution is similar, in practice, to using a confocal microscope. […] Several deconvolution procedures exist, which vary in complexity/algorithm. […]
During image analysis, counts are based on thresholding of image pixel intensity values and counts are made using particle detection algorithms (vary size/circularity). On example of colocalization analysis is quantitative immunocolocalization analysis as described in Li et al., 2004. […]

With `O=C1c2c(O)ccc(O)c2C(=O)c2c(NCCNCCO)ccc(NCCNCCO)c21` [mitoxantrone] the “colocalization of RBM45 with the nuclear stress body marker HSF1” value was “significant colocalization”.
